Test system: ARPE-19 cells
Experiment: Cell protection from oxidative stress caused by A2E (MTT)
Format: cell-based
Settings: ARPE-19, A2E accumulated 3 days, 30 μM, 48 hours, UV 5 minutes; in % (unit assumed)
Protocol: To determine the effect of inhibiting macular degeneration, the cell death inhibitory effect of A2E was measured. As test cells, ARPE-19 cells, which are retinal pigment epithelial cells, were used, and the medium, medium composition, and experimental conditions were the same as in Experimental Example 1. ARPE-19 cells were dispensed into a 24-well plate at a concentration of 3×10^4 cells/well and cultured for 24 hours, and then A2E was accumulated at a concentration of 3 µM for 3 days. In order to measure the effect of protecting cells from oxidative stress caused by A2E, the cells were treated with 25 μg/mL, 50 μg/mL, and 100 μg/mL of the 50% alcohol extract of Centella asiatica, and as a positive control, the cells were treated with 30 μM of lutein, which is known to have an inhibitory effect on macular degeneration, and cultured for 48 hours, and after 48 hours, the cells were irradiated with ultraviolet rays using a UV lamp for 5 minutes. The cell growth rate was measured at an absorbance of 570 nm using an MTT reagent, and the absorbance of each test solution was measured and compared with a control not treated with A2E.

CC1=C[C@H](O)CC(C)(C)[C@H]1/C=C/C(C)=C/C=C/C(C)=C/C=C/C=C(C)/C=C/C=C(C)/C=C/C1=C(C)C[C@@H](O)CC1(C)C [Lutein, lutein]
cell growth rate compared with a control not treated with A2E: 71.5 ± 8.22

Source: patent US20250195596A1, “COMPOSITION FOR PREVENTING OR TREATING RETINAL DISEASE, CONTAINING CENTELLA ASIATICA EXTRACT” (GENENCELL INC., priority 2018, published 2025)
